From patent publication US8614201B2 (Janssen Pharmaceutica NV, priority 2009, dated 2013) come the findings set out here.

The term IC50 denotes the concentration at which inhibition is half-maximal.

Sequence of Human TRPA1 (O75762 whole entry): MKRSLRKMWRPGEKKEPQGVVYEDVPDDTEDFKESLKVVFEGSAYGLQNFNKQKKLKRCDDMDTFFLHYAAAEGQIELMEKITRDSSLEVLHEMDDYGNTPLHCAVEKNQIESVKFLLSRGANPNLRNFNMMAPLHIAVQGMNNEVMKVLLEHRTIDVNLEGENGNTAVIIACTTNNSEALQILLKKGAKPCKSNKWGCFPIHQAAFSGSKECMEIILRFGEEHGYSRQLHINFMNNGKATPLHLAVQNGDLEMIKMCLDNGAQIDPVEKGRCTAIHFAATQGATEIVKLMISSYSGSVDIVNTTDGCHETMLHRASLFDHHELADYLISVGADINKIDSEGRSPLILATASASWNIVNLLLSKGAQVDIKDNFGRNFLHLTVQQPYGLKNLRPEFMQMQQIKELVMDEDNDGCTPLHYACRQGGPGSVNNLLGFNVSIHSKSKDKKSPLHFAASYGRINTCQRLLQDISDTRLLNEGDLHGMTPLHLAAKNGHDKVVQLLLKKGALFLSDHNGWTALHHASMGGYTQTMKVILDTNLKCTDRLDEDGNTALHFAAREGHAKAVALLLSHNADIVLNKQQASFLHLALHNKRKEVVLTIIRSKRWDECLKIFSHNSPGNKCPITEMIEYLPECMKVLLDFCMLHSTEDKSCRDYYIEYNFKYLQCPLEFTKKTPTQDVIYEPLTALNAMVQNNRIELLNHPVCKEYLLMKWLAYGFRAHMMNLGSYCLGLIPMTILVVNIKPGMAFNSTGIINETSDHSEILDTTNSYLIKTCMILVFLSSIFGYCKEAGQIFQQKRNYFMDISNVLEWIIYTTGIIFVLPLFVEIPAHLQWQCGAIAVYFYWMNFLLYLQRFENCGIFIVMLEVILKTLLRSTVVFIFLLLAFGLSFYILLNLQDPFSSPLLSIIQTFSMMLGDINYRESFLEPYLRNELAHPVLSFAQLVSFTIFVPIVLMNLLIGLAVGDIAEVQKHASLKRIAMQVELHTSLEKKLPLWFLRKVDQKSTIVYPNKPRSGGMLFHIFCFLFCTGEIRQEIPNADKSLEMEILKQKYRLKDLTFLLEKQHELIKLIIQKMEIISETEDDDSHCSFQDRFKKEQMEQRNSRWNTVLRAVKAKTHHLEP

In this assay the target is Human TRPA1 (Homo sapiens, UniProt O75762). Kind of assay: Assay 1: In vitro cellular testing of TRPA1 modulation (CHO-TREx, Fluo-3 calcium fluorescence, AITC agonist). The class given is cell-based. Also on record: expressed in transfected cells; host or cells: CHO-TREx cells (Invitrogen), vector pcDNA4/TO. The note with it: CHO-TREx cells expressing human TRPA1; Fluo-3 fluorescence (FLIPR/Tetra); agonist 15 μM allyl isothiocyanate (AITC); 30 minute antagonist incubation. The gist of the method:
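Antagonist potency is the 50% reduction of the AITC (15 μM) calcium response, Hill-fitted against no-antagonist and 10 μM ruthenium red controls. Fluo-3-loaded (4 μM) CHO-TREx cells with tetracycline-inducible human TRPA1 got compound in HEPES saline pH 7.4 for 30 min, usually from 10 μM in three-fold dilutions.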
Consider `Cc1nc(CNC(=O)[C@@H]2CCCN2S(=O)(=O)c2ccc(F)cc2)cc(-c2ccc(C(F)(F)F)cc2)n1` [Example 183, 1-(4-Fluoro-benzenesulfonyl)-pyrrolidine-2S-carboxylic acid [2-methyl-6-(4-trifluoromethyl-phenyl)-pyrimidin-4-ylmethyl]-amide], for which the IC50 was 20 nM. On to `CC(Nc1cc(CNC(=O)[C@@H]2CCCN2S(=O)(=O)c2ccc(Cl)s2)cc(-c2ccc(C(F)(F)F)cc2)n1)c1ccccn1` (stereo partly drawn) [Example 409, 1-[(5-Chlorothiophen-2-yl)sulfonyl]-N-({2-[(1-pyridin-2-ylethyl)amino]-6-[4-(trifluoromethyl)phenyl]pyridin-4-yl}methyl)-L-prolinamide], for which the IC50 is 64 nM. In the case of `O=C(NCc1ccnc(-c2ccc(OC(F)(F)F)cc2)c1)[C@@H]1CC(F)(F)CN1S(=O)(=O)c1ccc(F)cc1` [Example 131, 4,4-Difluoro-1-(4-fluoro-benzenesulfonyl)-pyrrolidine-2S-carboxylic acid [2-(4-trifluoromethoxy-phenyl)-pyridin-4-ylmethyl]-amide], the IC50 amounted to 87 nM.

Take `CSc1ccc(-c2cccc(CNC(=O)[C@@H]3CCCN3S(=O)(=O)c3ccc(F)cc3)c2)cc1` [Example 82, 1-(4-Fluoro-benzenesulfonyl)-pyrrolidine-2S-carboxylic acid (4′-methylsulfanyl-biphenyl-3-ylmethyl)-amide]: the IC50 was 50 nM. Turning to `O=C(NCc1cccc(-c2ccc(C(F)(F)F)c(Cl)c2)c1)[C@@H]1CCCN1S(=O)(=O)c1ccc(F)cc1` [Example 72, 1-(4-Fluoro-benzenesulfonyl)-pyrrolidine-2S-carboxylic acid (3′-chloro-4′-trifluoromethyl-biphenyl-3-ylmethyl)-amide], the IC50 was determined as 17 nM. On to `O=C(NCc1cc(-c2ccc(C(F)(F)F)cc2)nc(N2CCCCC2)c1)[C@@H]1CCCN1S(=O)(=O)c1ccc(F)cc1` [Example 318, 1-(4-Fluoro-benzenesulfonyl)-pyrrolidine-S2-carboxylic acid [6′-(4-trifluoromethyl-phenyl)-3,4,5,6-tetrahydro-2H-[1,2′]bipyridinyl-4′-ylmethyl]-amide], for which the IC50 stood at 29 nM.

Turning to `O=C(NCc1cccc(-c2cnc3ccccc3c2)c1)[C@@H]1CCCN1S(=O)(=O)c1ccc(F)cc1` [Example 105], the IC50 came out at 1030 nM. For the molecule `O=C(NCc1cccc(-c2ccc([N+](=O)[O-])cc2)c1)[C@@H]1CCCN1S(=O)(=O)c1ccc(F)cc1` [Example 76, 1-(4-Fluorobenzenesulfonyl)-pyrrolidine-2S-carboxylic acid (4′-nitrobiphenyl-3-ylmethyl)-amide], the IC50 stood at 24 nM. Turning to `CN(C)c1nc(CNC(=O)[C@@H]2CC(F)(F)CN2S(=O)(=O)c2ccc(Cl)s2)cc(-c2ccc(C(F)(F)F)cc2)n1` [Example 59], the IC50 is 81 nM. The same measure for `CN(C)c1cc(CNC(=O)[C@@H]2CC(F)(F)CN2S(=O)(=O)c2ccc(Cl)s2)cc(-c2ccc(C(F)(F)F)cc2)n1` [Example 376, 1-[(5-Chlorothiophen-2-yl)sulfonyl]-N-({2-(dimethylamino)-6-[4-(trifluoromethyl)phenyl]pyridin-4-yl}methyl)-4,4-difluoro-L-prolinamide]: 241 nM.

For the molecule `CN(C)CCN(C)c1nc(CNC(=O)[C@@H]2CCCN2S(=O)(=O)c2ccc(F)cc2)cc(-c2ccc(C(F)(F)F)cc2)n1` [Example 18, 1-(4-Fluoro-benzenesulfonyl)-pyrrolidine-2S-carboxylic acid [2-[(2-dimethylamino-ethyl)-methyl-amino]-6-(4-trifluoromethyl-phenyl)-pyrimidin-4-ylmethyl]-amide], the IC50 is 1850 nM.

Regarding `CC(Nc1cc(CNC(=O)[C@@H]2CC(F)(F)CN2S(=O)(=O)c2ccc(Cl)s2)cc(-c2ccc(C(F)(F)F)cc2)n1)c1cccnc1` (stereo partly drawn) [Example 399, 1-[(5-Chlorothiophen-2-yl)sulfonyl]-4,4-difluoro-N-({2-[(1-pyridin-3-ylethyl)amino]-6-[4-(trifluoromethyl)phenyl]pyridin-4-yl}methyl)-L-prolinamide], the IC50 was determined as 2610 nM. For `O=C(NCc1cc(-c2ccc(C(F)(F)F)cc2)nc(N2CCN(Cc3cccnc3)CC2)c1)[C@@H]1C=CCN1S(=O)(=O)c1ccc(Cl)s1` [Example 355, (2S)-1-[(5-Chlorothiophen-2-yl)sulfonyl]-N-({2-[4-(pyridin-3-ylmethyl)piperazin-1-yl]-6-[4-(trifluoromethyl)phenyl]pyridin-4-yl}methyl)-2,5-dihydro-1H-pyrrole-2-carboxamide], the IC50 stood at 891 nM.

In the case of `O=C(NCc1cc(-c2ccc(C(F)(F)F)cc2)nc(N2CCN(c3ccccc3F)CC2)c1)[C@@H]1C=CCN1S(=O)(=O)c1ccc(Cl)s1` [Example 359, (2S)-1-[(5-Chlorothiophen-2-yl)sulfonyl]-N-({2-[4-(2-fluorophenyl)piperazin-1-yl]-6-[4-(trifluoromethyl)phenyl]pyridin-4-yl}methyl)-2,5-dihydro-1H-pyrrole-2-carboxamide], the IC50 is 1190 nM. Regarding `Cc1ccc(S(=O)(=O)N2CCC[C@H]2C(=O)NCc2cc(-c3ccc(C(F)(F)F)cc3)ncn2)cc1` [Example 161, 1-(Toluene-4-sulfonyl)-pyrrolidine-2S-carboxylic acid [6-(4-trifluoromethylphenyl)-pyrimidin-4-ylmethyl]-amide], the 50% inhibitory concentration (IC50) worked out at 137 nM. Regarding `O=C(NCc1ccnc(-c2ccc(C(F)(F)F)cc2)c1)[C@@H]1CC(F)(F)CN1S(=O)(=O)c1ccc(F)cc1` [Example 125, 4,4-Difluoro-1-(4-fluorobenzenesulfonyl)-pyrrolidine-2S-carboxylic acid [2-(4-trifluoromethylphenyl)-pyridin-4-ylmethyl]-amide], the half-inhibitory concentration (IC50) worked out at 63 nM. For `O=C(NCc1cc(NCc2ccccc2)nc(-c2ccc(C(F)(F)F)cc2)c1)[C@@H]1C=CCN1S(=O)(=O)c1ccc(F)cc1` [Example 321, (2S)—N-({2-(Benzylamino)-6-[4-(trifluoromethyl)phenyl]pyridin-4-yl}methyl)-1-[(4-fluorophenyl)sulfonyl]-2,5-dihydro-1H-pyrrole-2-carboxamide], the IC50 was 1020 nM. For `CC(Nc1cc(CNC(=O)[C@@H]2CC(F)(F)CN2S(=O)(=O)c2ccc(F)cc2)cc(-c2ccc(C(F)(F)F)cc2)n1)c1ccncc1` (stereo partly drawn) [Example 401, 4,4-Difluoro-1-[(4-fluorophenyl)sulfonyl]-N-({2-[(1-pyridin-4-ylethyl)amino]-6-[4-(trifluoromethyl)phenyl]pyridin-4-yl}methyl)-L-prolinamide] the value was 2520 nM; for `O=C(NCc1cccc(-c2ccc(C(F)(F)F)cc2)c1)[C@@H]1[C@H]2C[C@H]2CN1S(=O)(=O)c1ccc(F)cc1` [Example 109, 3-(4-Fluorobenzenesulfonyl)-3-aza-1S,5R-bicyclo[3.1.0]hexane-2S-carboxylic acid (4′-trifluoromethylbiphenyl-3-ylmethyl)-amide], 319 nM; for `O=C(NCc1cc(NCc2ccccn2)nc(-c2ccc(C(F)(F)F)cc2)c1)[C@@H]1CC(F)(F)CN1S(=O)(=O)c1ccc(Cl)s1` [Example 382, 1-[(5-Chlorothiophen-2-yl)sulfonyl]-4,4-difluoro-N-({2-[(pyridin-2-ylmethyl)amino]-6-[4-(trifluoromethyl)phenyl]pyridin-4-yl}methyl)-L-prolinamide], 5090 nM.
